Laboratory results taken from US8080264B2, “Natural composition for curing hepatitis-B, methods for making the same and pharmaceutical formulations thereof” (Himalaya Global Holdings Ltd., priority 2004, dated 2011).

Tested on: HepG2 cells
Test: Hepatoprotective effects in vitro against TBH oxidative damage
Details: MTT, TBH challenge

**Q.** With `CC(C)(C)OO` [TBH, Tertiary Butyl Hydro peroxide] as the compound, how does the “Survival (%)” value read?
**A.** 52.53%
